Data set [1] in a line: Fat absorption by sucrose behenate marker method, mice (Example 1). As to the method:
(§1) These two diets further have the following composition by weight: about 16% fat, 45% non-fat dry milk, and 39% sucrose, providing 30:15:55 fat:protein:carbohydrate energy %. Non-fat dry milk comprised 60% carbohydrate and 40% protein by weight. The fat composition (% by weight) is given for each diet as listed below. […] Aliquots of approximately 10 microliters of each fat blend are set aside and later analyzed for fatty acid analysis. The fat blends are added to non-fat dry milk and sucrose and mixed with an electric mixer for 5 minutes. The prepared diets are placed in a capped glass bottle and stored at 4° C. until used.
(§2) The feeding and fecal collection regimen for rodents includes two days of test diet and three days of fecal collection. Prior to the study, the animals eat commercial chow ad libitum. Test diets, also fed ad libitum, replace chow on days 0 and 1, and chow is returned to the animals on day 2. Fecal collections are made on days 1, 2, and 3. The feeding and feces collection regimen is illustrated in the following table A:
(§3) In general sample sizes of 10-20 milligrams provide a 5 to 10-fold excess of behenate in terms of the sensitivity of the gas chromatograph. The weighed fecal sample is ground into small particles with a spatula and placed in a 20 mL vial for saponification, methylation, and extraction. The method for saponification and methylation of fatty acids for gas chromatographic analysis can be that reported by Mecalfe (Metcalfe, L D et al. (1966). Anal. Chem. 38: 514-515). Four mL of 0.5N methanolic sodium hydroxide are added to the vial, which is then heated in a water bath at ˜80° C. for 5 mins. After a brief cooling period, 3 mL of BF3 in methanol (14% borontrifluoride and 86% methanol) are added to methylate the sample. After another five minutes of heating in the waterbath, the sample vial is allowed to cool to allow handling. Two mL of a saturated solution of sodium chloride and 10 mL of hexane are added to the vial. The samples are then mixed with a vortex mixer for one minute. Centrifugation can be used (2500 rpm at 1 min) to expedite the process of separation into two layers. The hexane fraction is transferred by pipette into a 20 mL vial that contains ˜10 mg of sodium sulfate to dry the sample. The hexane solution is removed for gas chromatograph analysis. An injection volume of 1 μL of the 10 mL of hexane is analyzed.
Samples are analyzed with a gas chromatograph (GC) such as a Shimadzu GC-17A equipped with autosampler and autoinjector. Analysis of fatty acid methyl esters is then based on areas calculated with Shimadzu Class VP 4.3 software. An example of an appropriate column is one that can be obtained from J&W Scientific, DB-23 (123-2332): 30 m (length), I.D. (mm) 0.32 widebore, film thickness of […], although any suitable column can be substituted. Fatty acid identification is made by the use of comparison of retention times with those of authenticated standards. The conditions for the GC analysis in the present example are: Column temperature ramping by holding at 120° C. for one minute followed by an increase of 5° C./min from 120-240° C. The temperature of the injector and flame ionization detector is 250° C. A split (8:1) injection mode is used. The carrier gas is helium with a column flow rate of 2.5 mL/min. Under these conditions, the retention time of methyl behenate is 18.7 min.
The absorption of fatty acids is calculated with formula II:
[formula] • where Fd=sum of the masses of all dietary fatty acids (or that of an individual fatty acid) other than behenic acid, • Bd=mass of dietary behenic acid, • Ff=sum of the mass of all fecal fatty acids (or that of an individual fatty acid) other than behenic acid, and • Bf=mass of fecal behenic acid.

Data set [2] in a line: Fat absorption by sucrose behenate marker method, rats (Example 2). As to the method:
as §1, §2, §3
Samples are analyzed with a gas chromatograph (GC) such as a Shimadzu GC-17A equipped with autosampler and autoinjector. Analysis of fatty acid methyl esters is then based on areas calculated with Shimadzu Class VP 4.3 software. […]
The absorption of fatty acids is calculated with formula II: […]

The values that follow come from US7695971B2, “Use of non-absorbable fat in determining dietary fat absorption” (Children's Hospital Medical Center, priority 2003, dated 2010).

The structures appear in SMILES notation.

With `CCCCCCCCCCCCCCCCCC(=O)O` [Stearic acid], in data set [1] (male, C57B1/6, mouse, in vivo), the “Percent in Feces (Mean ± SEM)” value stood at 5.28 ± 0.3% and the “absorption of individual fatty acid” value turned out to be 77.3±2.1%. Moreover, the “absorption of individual fatty acid from safflower oil” value in data set [2] (rat, in vivo) is given as 75.9±0.3%.

Consider `CCCCCCCC/C=C\CCCCCCCC(=O)O` [oleic], for which the “Percent in Feces (Mean ± SEM)” value in data set [1] (fecal samples from mice ingesting Safflower Oil and Olestra Diet) was 24.7 ± 01.0%. Besides, in data set [1] (mice, Safflower Oil Diet), the “absorption of individual fatty acid from safflower oil (in words)” value is reported as “nearly complete”. The “absorption of individual fatty acid from safflower oil” value in data set [2] (rats, fecal collections of days 2 and 3) worked out at 90.9±0.5%.

`CCCCCCCCCCCCCCCCCCCCCC(=O)O` [behenic acid, reference compound]: in data set [1] (mice fed Safflower Oil Diet), the “behenic acid in feces, of the total fatty acids” value is reported as 33.5-66.4%. For the same compound, the “behenic acid in feces, of the fatty acids” value in data set [1] (mice fed Safflower Oil and Olestra Diet) is recorded as 12.5-19.3%.

With `CCCCCCCCCCCCCCCC(=O)O` [Palmitic acid], the “Percent in Feces (Mean ± SEM)” value in data set [1] (male, C57B1/6, mouse, in vivo) is listed as 18.3 ± 0.5%. In data set [2] (rat, in vivo), the “absorption of individual fatty acid from safflower oil” value worked out at 90.1±0.3%.

As to `CCCCC/C=C\C/C=C\CCCCCCCC(=O)O` [linoleic acid], the “Percent in Feces (Mean ± SEM)” value in data set [1] (male, C57B1/6, mouse, in vivo) is reported as 27.7 ± .6%. Further, the “absorption of individual fatty acid from safflower oil (in words)” value in data set [1] (mouse, in vivo) is “nearly complete”; in data set [2] (rat, in vivo), “essentially complete”.
